Laboratory results published in PMC9133015 (Nature Communications, 2022).
Values joined by “and” are separate entries in the source; they are usually repeats but may differ in a detail not shown here. Identical values can stand only once.

Columns and labels:
Format in all cases: biochemical
DYRK2 = molecular target: T1, DYRK2 (Homo sapiens, UniProt Q92630); test: DYRKs kinase activity assay (33P-ATP, DYRKtide substrate): DYRK2
T1 construct: purchased Reaction Biology Corporation (assay service)
T1 sequence (Q92630 1-601): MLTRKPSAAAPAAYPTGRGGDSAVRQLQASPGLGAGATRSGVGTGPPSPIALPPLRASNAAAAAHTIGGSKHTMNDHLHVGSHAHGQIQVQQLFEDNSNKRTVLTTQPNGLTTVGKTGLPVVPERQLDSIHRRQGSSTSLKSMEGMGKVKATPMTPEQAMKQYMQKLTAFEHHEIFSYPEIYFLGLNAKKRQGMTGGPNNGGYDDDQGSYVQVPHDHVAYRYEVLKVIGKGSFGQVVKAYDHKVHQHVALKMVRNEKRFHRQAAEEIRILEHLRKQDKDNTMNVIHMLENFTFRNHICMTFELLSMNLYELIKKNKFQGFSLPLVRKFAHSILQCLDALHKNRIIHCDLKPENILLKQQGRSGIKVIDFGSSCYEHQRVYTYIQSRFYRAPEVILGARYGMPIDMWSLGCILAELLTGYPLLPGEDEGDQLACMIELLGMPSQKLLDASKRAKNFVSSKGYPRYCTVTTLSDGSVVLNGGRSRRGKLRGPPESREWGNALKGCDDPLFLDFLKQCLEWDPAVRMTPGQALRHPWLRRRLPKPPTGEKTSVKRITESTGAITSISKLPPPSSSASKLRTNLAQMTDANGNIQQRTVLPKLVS

DYRK1B = molecular target: T2, DYRK1B (Homo sapiens, UniProt Q9Y463); test: DYRKs kinase activity assay (33P-ATP, DYRKtide substrate): DYRK1B
T2 construct: purchased Reaction Biology Corporation (assay service)

[1] = molecular target: T3, panel of 370 protein kinases (Homo sapiens, UniProt Q8IW41); test: Kinase inhibitor specificity profiling (Reaction Biology Corporation); parameters: % Enzyme Activity (relative to DMSO controls): concentration or dose not given beside the values; conditions: 2 h, kinase MAPKAPK5/PRAK; read-out: % Enzyme Activity (relative to DMSO controls)
T3 construct: purchased Reaction Biology Corporation (assay service)

[2] = molecular target: T4, panel of 370 protein kinases (Homo sapiens, UniProt P30530); test: as above; parameters: % Enzyme Activity (relative to DMSO controls): concentration or dose not given beside the values; conditions: 2 h, kinase AXL; read-out: % Enzyme Activity (relative to DMSO controls)
T4 construct: purchased Reaction Biology Corporation (assay service)

[3] = molecular target: T5, panel of 370 protein kinases (Homo sapiens, UniProt Q6DT37); test: as above; parameters: % Enzyme Activity (relative to DMSO controls): concentration or dose not given beside the values; conditions: 2 h, kinase DMPK2; read-out: % Enzyme Activity (relative to DMSO controls)
T5 construct: purchased Reaction Biology Corporation (assay service)

[4] = molecular target: T6, panel of 370 protein kinases (Homo sapiens, UniProt P43405); test: as above; parameters: % Enzyme Activity (relative to DMSO controls): concentration or dose not given beside the values; conditions: kinase SYK
T6 construct: purchased Reaction Biology Corporation (assay service)

[5] = molecular target: T7, panel of 370 protein kinases (Homo sapiens, UniProt Q06187); test: as above; parameters: % Enzyme Activity (relative to DMSO controls): concentration or dose not given beside the values; conditions: kinase BTK
T7 construct: purchased Reaction Biology Corporation (assay service)

[6] = molecular target: T8, panel of 370 protein kinases (Homo sapiens, UniProt O43293); test: as above; parameters: % Enzyme Activity (relative to DMSO controls): concentration or dose not given beside the values; conditions: 2 h, kinase ZIPK/DAPK3; read-out: % Enzyme Activity (relative to DMSO controls)
T8 construct: purchased Reaction Biology Corporation (assay service)

[7] = molecular target: T9, panel of 370 protein kinases (Homo sapiens, UniProt O00238); test: as above; parameters: % Enzyme Activity (relative to DMSO controls): concentration or dose not given beside the values; conditions: 2 h, kinase ALK6/BMPR1B; read-out: % Enzyme Activity (relative to DMSO controls)
T9 construct: purchased Reaction Biology Corporation (assay service)

[8] = molecular target: T10, panel of 370 protein kinases (Homo sapiens, UniProt P78368); test: as above; parameters: % Enzyme Activity (relative to DMSO controls): concentration or dose not given beside the values; conditions: kinase CK1g2
T10 construct: purchased Reaction Biology Corporation (assay service)

DYRK4 = molecular target: T11, DYRK4 (Homo sapiens, UniProt Q9NR20); test: DYRKs kinase activity assay (33P-ATP, DYRKtide substrate): DYRK4; conditions: for % Inhibition DYRK4: duplicates
T11 construct: purchased Reaction Biology Corporation (assay service)
T11 sequence (Q9NR20 1-520): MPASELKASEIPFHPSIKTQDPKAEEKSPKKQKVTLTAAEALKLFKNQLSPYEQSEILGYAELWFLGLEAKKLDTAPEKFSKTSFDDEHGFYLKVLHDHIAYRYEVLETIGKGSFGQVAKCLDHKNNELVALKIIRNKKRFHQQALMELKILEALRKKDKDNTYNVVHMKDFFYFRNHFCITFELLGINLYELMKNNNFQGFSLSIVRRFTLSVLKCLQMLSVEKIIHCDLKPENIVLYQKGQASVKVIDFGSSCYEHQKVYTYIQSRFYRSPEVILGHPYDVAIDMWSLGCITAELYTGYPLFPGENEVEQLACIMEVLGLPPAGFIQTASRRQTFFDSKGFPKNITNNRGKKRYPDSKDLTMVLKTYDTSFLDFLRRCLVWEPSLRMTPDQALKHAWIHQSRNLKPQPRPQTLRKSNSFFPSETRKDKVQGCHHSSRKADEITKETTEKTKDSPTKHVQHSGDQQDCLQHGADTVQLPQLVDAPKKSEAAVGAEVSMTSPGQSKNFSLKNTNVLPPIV

T2 sequence (Q9Y463 whole entry): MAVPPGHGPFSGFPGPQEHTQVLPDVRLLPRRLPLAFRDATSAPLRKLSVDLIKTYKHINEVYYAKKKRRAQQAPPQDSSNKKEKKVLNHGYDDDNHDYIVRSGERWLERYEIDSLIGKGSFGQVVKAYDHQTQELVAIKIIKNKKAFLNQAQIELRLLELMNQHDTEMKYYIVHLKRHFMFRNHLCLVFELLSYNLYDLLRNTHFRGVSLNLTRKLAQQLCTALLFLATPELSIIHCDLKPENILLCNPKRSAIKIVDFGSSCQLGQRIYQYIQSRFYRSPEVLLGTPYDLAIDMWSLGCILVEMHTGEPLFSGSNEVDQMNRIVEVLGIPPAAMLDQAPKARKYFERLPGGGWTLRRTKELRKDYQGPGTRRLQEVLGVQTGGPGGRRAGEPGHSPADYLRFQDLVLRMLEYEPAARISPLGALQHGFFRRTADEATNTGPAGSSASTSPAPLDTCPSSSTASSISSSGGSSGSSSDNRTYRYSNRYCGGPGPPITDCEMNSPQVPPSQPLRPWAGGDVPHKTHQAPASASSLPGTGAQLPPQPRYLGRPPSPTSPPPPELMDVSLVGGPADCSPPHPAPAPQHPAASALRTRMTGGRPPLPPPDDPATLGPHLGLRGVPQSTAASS
T10 sequence (P78368 whole entry): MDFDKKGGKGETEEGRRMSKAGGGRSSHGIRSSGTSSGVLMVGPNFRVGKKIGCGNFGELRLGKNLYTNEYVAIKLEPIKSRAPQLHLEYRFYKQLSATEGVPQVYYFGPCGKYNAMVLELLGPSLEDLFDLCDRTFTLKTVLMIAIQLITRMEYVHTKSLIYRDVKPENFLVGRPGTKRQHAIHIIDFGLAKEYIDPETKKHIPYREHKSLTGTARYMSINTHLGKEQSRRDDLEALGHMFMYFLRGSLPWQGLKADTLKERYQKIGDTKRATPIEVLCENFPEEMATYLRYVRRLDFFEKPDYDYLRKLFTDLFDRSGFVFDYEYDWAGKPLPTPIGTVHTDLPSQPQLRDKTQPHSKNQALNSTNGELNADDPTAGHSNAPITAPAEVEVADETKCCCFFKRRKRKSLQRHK
T7 sequence (Q06187 whole entry): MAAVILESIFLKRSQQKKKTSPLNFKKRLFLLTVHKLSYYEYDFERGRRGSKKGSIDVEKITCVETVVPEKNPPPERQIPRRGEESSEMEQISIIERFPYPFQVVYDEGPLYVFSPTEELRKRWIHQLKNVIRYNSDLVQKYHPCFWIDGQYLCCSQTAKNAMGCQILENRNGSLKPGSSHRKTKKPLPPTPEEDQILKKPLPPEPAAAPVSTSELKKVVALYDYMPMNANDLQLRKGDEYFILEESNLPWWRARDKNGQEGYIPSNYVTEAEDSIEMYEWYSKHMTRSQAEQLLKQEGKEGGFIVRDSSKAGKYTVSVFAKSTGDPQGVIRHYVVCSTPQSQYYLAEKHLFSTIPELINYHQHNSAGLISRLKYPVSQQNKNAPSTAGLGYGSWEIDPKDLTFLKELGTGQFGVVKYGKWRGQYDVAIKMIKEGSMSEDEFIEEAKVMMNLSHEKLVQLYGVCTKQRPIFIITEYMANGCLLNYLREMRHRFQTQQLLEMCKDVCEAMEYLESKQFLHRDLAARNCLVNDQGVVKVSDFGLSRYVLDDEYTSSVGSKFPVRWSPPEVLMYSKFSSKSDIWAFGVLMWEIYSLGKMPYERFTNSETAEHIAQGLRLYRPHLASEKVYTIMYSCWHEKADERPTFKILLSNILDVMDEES
T9 sequence (O00238 14-502): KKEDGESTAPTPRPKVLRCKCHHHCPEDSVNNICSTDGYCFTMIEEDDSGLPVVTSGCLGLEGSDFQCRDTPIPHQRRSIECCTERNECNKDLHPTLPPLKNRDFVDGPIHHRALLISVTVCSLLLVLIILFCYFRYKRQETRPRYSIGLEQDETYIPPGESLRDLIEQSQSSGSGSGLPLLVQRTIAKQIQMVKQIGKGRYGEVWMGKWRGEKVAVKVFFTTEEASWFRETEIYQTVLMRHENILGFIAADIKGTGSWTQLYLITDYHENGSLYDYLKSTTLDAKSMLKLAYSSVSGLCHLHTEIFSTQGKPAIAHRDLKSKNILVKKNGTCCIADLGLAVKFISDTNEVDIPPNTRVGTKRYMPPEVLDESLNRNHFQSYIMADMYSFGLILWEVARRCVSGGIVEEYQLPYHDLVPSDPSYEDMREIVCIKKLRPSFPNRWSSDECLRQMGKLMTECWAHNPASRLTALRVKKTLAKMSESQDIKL
T3 sequence (Q8IW41 whole entry): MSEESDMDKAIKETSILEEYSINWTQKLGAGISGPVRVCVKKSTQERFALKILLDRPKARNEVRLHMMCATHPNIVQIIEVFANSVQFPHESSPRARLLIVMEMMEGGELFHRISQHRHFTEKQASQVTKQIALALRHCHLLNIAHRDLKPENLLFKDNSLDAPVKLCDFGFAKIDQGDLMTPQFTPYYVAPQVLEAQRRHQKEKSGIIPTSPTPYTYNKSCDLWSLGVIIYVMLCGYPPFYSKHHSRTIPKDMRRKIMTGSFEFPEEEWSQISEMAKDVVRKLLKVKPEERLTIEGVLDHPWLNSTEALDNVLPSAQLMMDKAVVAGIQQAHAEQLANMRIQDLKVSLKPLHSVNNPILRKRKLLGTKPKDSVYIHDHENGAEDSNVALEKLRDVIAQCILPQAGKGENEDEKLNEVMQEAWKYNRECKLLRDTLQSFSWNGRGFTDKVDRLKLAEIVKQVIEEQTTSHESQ
T4 sequence (P30530 26-894): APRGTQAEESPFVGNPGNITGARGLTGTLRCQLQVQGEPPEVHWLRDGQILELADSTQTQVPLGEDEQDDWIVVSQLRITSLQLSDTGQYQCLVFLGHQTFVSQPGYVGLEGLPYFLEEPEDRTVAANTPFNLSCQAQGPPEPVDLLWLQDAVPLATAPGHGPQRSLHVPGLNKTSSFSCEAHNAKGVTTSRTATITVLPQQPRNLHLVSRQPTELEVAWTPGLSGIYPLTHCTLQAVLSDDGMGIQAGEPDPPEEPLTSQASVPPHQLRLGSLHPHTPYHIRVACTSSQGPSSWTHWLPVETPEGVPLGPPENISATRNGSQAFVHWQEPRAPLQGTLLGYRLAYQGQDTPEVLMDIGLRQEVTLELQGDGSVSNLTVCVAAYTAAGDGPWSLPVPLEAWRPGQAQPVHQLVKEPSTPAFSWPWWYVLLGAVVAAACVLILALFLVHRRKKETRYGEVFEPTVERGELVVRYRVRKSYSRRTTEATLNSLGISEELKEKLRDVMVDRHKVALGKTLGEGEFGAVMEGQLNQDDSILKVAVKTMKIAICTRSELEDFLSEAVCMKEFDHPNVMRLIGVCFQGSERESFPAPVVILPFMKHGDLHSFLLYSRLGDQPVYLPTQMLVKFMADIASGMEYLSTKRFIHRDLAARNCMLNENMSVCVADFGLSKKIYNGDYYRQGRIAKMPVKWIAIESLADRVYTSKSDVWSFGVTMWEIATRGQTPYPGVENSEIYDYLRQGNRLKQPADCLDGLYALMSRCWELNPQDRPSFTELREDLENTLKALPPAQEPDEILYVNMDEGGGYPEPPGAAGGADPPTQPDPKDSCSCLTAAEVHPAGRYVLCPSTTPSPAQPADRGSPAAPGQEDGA
T8 sequence (O43293 whole entry): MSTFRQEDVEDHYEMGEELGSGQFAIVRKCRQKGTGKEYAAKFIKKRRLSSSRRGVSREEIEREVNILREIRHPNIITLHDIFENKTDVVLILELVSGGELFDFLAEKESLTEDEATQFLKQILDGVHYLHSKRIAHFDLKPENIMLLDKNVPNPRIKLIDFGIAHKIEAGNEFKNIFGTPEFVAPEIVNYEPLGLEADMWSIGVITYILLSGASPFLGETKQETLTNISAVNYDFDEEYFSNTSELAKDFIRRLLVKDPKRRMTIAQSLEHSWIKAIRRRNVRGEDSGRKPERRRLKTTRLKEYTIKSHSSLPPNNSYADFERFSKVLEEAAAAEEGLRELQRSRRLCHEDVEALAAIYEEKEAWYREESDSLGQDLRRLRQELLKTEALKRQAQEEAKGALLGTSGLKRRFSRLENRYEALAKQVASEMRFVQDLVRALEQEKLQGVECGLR

Work on `CCN1CCN(C(=O)c2ccc(Nc3ncc(F)c(-c4ccc5nc(N(C)C)sc5c4)n3)nc2)CC1` [YK-2-69] yielded an inhibition at 0.00228624 µM (DYRK2; 0.00228624 µM, duplicates, read-out: % Inhibition DYRK2) of 26.1%, an inhibition at 0.00685871 µM (DYRK2; 0.00685871 µM, duplicates, read-out: % Inhibition DYRK2) of 53% and an inhibition at 0.0205761 µM (DYRK2; 0.0205761 µM, duplicates, read-out: % Inhibition DYRK2) of 65.2%. The inhibition at 0.0617284 µM (DYRK2; 0.0617284 µM, duplicates, read-out: % Inhibition DYRK2) was 82.1%, the inhibition at 0.185185 µM (DYRK2; 0.185185 µM, duplicates, read-out: % Inhibition DYRK2) was 94.1% and the inhibition at 0.555556 µM (DYRK2; 0.555556 µM, duplicates, read-out: % Inhibition DYRK2) was 96.8%. The inhibition at 5 µM (DYRK2; 5 µM, duplicates, read-out: % Inhibition DYRK2) was 97.8%, the IC50 (DYRK2; read-out: DYRK2 IC50) was 9 nM and the IC50 (DYRK1B) was 542 nM. The “% Inhibition DYRK1B” value (DYRK1B; 0.000762079 µM, duplicates) was 3.06% and 6.85%, the “% Inhibition DYRK1B” value (DYRK1B; 0.00228624 µM, duplicates) was 3.24% and the inhibition at 0.00228624 µM (DYRK1B; 0.00228624 µM, duplicates) was 5.73%. The “% Inhibition DYRK1B” value (DYRK1B; 0.00685871 µM, duplicates) was 11.00%, the inhibition at 0.00685871 µM (DYRK1B; 0.00685871 µM, duplicates) was 7.22% and the “% Inhibition DYRK1B” value (DYRK1B; 0.0205761 µM, duplicates) was 13.48%. The inhibition at 0.0205761 µM (DYRK1B; 0.0205761 µM, duplicates) was 9.47%, the “% Inhibition DYRK1B” value (DYRK1B; 0.0617284 µM, duplicates) was 24.87% and the inhibition at 0.0617284 µM (DYRK1B; 0.0617284 µM, duplicates) was 26.4%. For the same molecule, the “% Inhibition DYRK1B” value (DYRK1B; 0.185185 µM, duplicates) was 44.86%, the inhibition at 0.185185 µM (DYRK1B; 0.185185 µM, duplicates) was 44.6% and the “% Inhibition DYRK1B” value (DYRK1B; 0.555556 µM, duplicates) was 57.04%. The inhibition at 0.555556 µM (DYRK1B; 0.555556 µM, duplicates) was 57.3%, the “% Inhibition DYRK1B” value (DYRK1B; 1.66667 µM, duplicates) was 62.26% and the “% Inhibition DYRK1B” value (DYRK1B; 5 µM, duplicates) was 64.81%. For the same molecule, the inhibition at 5 µM (DYRK1B; 5 µM, duplicates) was 65.1%, the inhibition at 1.66667 µM (DYRK1B; read-out: % Inhibition DYRK1B, 1.66667 µM, duplicates) was 62.7% and the “selectivity over DYRK1B” value (DYRK1B; vs DYRK2) was 60 fold. The remaining activity at 1 µM [1] was 98.5%, the remaining activity at 1 µM [2] was 94.3% and the remaining activity at 1 µM [3] was 97.7%. The “% Enzyme Activity (relative to DMSO controls)” value [4] was 98.88% and 95.73%, the “% Enzyme Activity (relative to DMSO controls)” value [5] was 90.26% and 87.58% and the remaining activity at 1 µM [6] was 67.1%. For the same molecule, the remaining activity at 1 µM [7] was 90.5%, the “% Enzyme Activity (relative to DMSO controls)” value [8] was 92.19% and 91.13% and the IC50 (DYRK4) was > 1000 nM. The “% Inhibition DYRK4” value (DYRK4; 0.000762079 µM) was 1.66%, the “% Inhibition DYRK4” value (DYRK4; 0.00228624 µM) was -2.93% and -3.51% and the “% Inhibition DYRK4” value (DYRK4; 0.00685871 µM) was 3.37%. For the same molecule, the “% Inhibition DYRK4” value (DYRK4; 0.0205761 µM) was 5.66%, the “% Inhibition DYRK4” value (DYRK4; 0.0617284 µM) was 18.67% and the “% Inhibition DYRK4” value (DYRK4; 0.185185 µM) was 25.42%. The “% Inhibition DYRK4” value (DYRK4; 0.555556 µM) was 42.15%, the “% Inhibition DYRK4” value (DYRK4; 1.66667 µM) was 56.81% and the “% Inhibition DYRK4” value (DYRK4; 5 µM) was 64.30%. The inhibition at 0.000762079 µM (DYRK4; read-out: % Inhibition DYRK4, 0.000762079 µM, duplicates) was 2.99%, the inhibition at 0.00685871 µM (DYRK4; read-out: % Inhibition DYRK4, 0.00685871 µM, duplicates) was 4.77% and the inhibition at 0.0205761 µM (DYRK4; read-out: % Inhibition DYRK4, 0.0205761 µM, duplicates) was 7.57%. The inhibition at 0.0617284 µM (DYRK4; read-out: % Inhibition DYRK4, 0.0617284 µM, duplicates) was 21.2%, the inhibition at 0.185185 µM (DYRK4; read-out: % Inhibition DYRK4, 0.185185 µM, duplicates) was 29.7% and the inhibition at 0.555556 µM (DYRK4; read-out: % Inhibition DYRK4, 0.555556 µM, duplicates) was 42.1%. For the same molecule, the inhibition at 1.66667 µM (DYRK4; read-out: % Inhibition DYRK4, 1.66667 µM, duplicates) was 54.7%, the inhibition at 5 µM (DYRK4; read-out: % Inhibition DYRK4, 5 µM, duplicates) was 64.8% and the “selectivity over DYRK4” value (DYRK4; vs DYRK2) was “more than 100 fold”.
